Test results reported in article PMC4254530 (Bioorganic & medicinal chemistry, 2014).

Legend:
KDR/VEGFR2 = KDR/VEGFR2 (Homo sapiens, UniProt P35968); assay: Kinase selectivity assay KDR/VEGFR2; format: biochemical; conditions: read-out: KDR/VEGFR2 % inhibition at 20 μM
CDK6/D1 = CDK6/D1 (Homo sapiens, UniProt Q00534); assay: Kinase selectivity assay CDK6/D1; format: biochemical; conditions: 20 μM compound, ATP Km 30 μM
PKCε = molecular target: T1, PKCε (Homo sapiens, UniProt Q02156); assay: Kinase selectivity assay PKCε; format: biochemical; conditions: read-out: PKCε % inhibition at 20 μM
T1 sequence (Q02156 1-737): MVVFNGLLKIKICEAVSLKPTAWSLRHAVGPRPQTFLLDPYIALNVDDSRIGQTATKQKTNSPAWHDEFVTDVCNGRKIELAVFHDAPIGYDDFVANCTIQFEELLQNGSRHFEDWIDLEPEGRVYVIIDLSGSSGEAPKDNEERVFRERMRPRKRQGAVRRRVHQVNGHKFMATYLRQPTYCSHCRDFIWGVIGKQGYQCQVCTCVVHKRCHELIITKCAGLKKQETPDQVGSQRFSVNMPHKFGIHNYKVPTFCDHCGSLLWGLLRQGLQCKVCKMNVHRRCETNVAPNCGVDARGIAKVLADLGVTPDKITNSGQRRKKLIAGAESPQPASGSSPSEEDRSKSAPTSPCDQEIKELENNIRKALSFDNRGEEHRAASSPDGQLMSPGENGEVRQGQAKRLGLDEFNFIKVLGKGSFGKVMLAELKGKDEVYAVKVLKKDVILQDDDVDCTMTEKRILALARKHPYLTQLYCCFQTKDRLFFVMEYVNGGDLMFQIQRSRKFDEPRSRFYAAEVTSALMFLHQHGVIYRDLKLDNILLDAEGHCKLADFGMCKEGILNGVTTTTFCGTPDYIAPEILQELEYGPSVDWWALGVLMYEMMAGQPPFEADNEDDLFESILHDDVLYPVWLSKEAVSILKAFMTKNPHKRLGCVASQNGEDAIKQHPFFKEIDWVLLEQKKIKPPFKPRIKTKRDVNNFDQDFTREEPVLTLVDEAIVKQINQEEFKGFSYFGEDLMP

GSK3β = GSK3β (Homo sapiens, UniProt P49841); assay: Kinase selectivity assay GSK3β; format: biochemical; conditions: read-out: GSK3β % inhibition at 20 μM
Chain of GSK3β (P49841 whole entry): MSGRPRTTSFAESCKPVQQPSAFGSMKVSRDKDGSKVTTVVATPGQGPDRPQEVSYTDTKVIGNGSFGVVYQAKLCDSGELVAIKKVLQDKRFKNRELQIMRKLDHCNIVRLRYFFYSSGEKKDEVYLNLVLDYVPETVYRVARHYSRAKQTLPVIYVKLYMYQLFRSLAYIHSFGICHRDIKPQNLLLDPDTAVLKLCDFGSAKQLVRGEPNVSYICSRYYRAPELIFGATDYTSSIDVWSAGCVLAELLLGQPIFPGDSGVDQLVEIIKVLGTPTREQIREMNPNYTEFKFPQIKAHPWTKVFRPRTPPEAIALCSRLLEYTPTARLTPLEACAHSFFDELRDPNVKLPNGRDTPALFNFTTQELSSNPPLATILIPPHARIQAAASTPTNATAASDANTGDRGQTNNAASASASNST

CDK2/A = CDK2/A (Homo sapiens, UniProt P24941); assay: Kinase selectivity assay CDK2/A; format: biochemical; conditions: read-out: CDK2/A % inhibition at 20 μM
CK1a1 = CK1a1 (Homo sapiens, UniProt P48729); assay: Kinase selectivity assay CK1a1; format: biochemical; conditions: read-out: CK1a1 % inhibition at 20 μM
Chain of CK1a1 (P48729 whole entry): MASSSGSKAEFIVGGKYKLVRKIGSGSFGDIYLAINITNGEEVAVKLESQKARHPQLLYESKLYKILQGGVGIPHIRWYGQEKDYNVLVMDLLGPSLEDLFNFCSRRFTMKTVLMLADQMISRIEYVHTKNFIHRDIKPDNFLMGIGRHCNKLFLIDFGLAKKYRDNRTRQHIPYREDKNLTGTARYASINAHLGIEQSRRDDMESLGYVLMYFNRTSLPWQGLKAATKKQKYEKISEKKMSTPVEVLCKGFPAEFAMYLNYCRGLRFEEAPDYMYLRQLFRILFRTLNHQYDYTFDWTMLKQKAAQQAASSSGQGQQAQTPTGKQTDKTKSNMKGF

CDK1/B = CDK1/B (Homo sapiens, UniProt P06493); assay: Kinase selectivity assay CDK1/B; format: biochemical
WEE1 = WEE1 (Homo sapiens, UniProt P30291); assay: Kinase selectivity assay WEE1; format: biochemical
CDK5/p25 = CDK5/p25 (Homo sapiens, UniProt Q00535); assay: ATP competitive binding assay; format: biochemical; conditions: IC50 at increasing ATP concentrations, Lineweaver-Burk plot
Chain of CDK5/p25 (Q00535 whole entry): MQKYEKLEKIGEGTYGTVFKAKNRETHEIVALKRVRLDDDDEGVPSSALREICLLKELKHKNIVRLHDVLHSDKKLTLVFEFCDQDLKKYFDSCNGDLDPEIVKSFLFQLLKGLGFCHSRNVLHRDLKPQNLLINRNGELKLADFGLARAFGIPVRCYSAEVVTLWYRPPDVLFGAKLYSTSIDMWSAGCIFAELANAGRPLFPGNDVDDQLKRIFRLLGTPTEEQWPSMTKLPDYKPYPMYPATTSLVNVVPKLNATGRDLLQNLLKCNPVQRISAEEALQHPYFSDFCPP
Chain of CDK5/p25 (Q15078 99-307 partner limits assumed): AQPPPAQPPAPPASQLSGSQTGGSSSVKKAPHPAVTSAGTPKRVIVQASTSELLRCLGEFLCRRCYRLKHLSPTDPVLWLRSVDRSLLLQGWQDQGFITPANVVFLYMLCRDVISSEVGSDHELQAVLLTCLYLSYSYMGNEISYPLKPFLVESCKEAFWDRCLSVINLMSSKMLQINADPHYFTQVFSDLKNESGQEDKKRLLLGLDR

DYRK1/DYRK1A = DYRK1/DYRK1A (Homo sapiens, UniProt Q13627); assay: Kinase selectivity assay DYRK1/DYRK1A; format: biochemical; conditions: read-out: DYRK1/DYRK1A % inhibition at 20 μM
GSK3α = GSK3α (Homo sapiens, UniProt P49840); assay: Kinase selectivity assay GSK3α; format: biochemical; conditions: read-out: GSK3α % inhibition at 20 μM
Chain of GSK3α (P49840 whole entry): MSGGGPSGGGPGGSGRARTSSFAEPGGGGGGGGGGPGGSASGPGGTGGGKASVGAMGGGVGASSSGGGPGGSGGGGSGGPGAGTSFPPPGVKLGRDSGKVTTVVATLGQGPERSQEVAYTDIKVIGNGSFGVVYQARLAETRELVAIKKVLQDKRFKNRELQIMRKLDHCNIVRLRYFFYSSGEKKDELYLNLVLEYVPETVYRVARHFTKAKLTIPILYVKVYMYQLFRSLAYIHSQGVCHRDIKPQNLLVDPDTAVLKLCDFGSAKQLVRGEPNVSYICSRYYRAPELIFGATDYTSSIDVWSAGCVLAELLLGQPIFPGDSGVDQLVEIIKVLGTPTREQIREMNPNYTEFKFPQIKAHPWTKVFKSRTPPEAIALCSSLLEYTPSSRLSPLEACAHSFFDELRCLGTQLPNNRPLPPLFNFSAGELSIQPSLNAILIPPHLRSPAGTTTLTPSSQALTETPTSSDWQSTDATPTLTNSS

full length hCDK5/p25 = full length hCDK5/p25 (Homo sapiens, UniProt Q00535); assay: γ-33P ATP filter binding assay, hCDK5/p25; format: biochemical; conditions: for IC50: CDK5/p25 IC50, ATP (Km) 30 μM, Table 5; for inhibition at 50 µM: read-out: CDK5/p25 inhibition @50μM
Chain of full length hCDK5/p25 (Q00535 whole entry): as the sequence (Q00535 whole entry) above
Chain of full length hCDK5/p25 (Q15078 99-307 partner limits assumed): as the sequence (Q15078 99-307 partner limits assumed) above

full length hCDK2/E = full length hCDK2/E (Homo sapiens, UniProt P24941); assay: γ-33P ATP filter binding assay, hCDK2/E
PKA = PKA (Homo sapiens, UniProt P17612); assay: Kinase selectivity assay PKA; format: biochemical
CDK4/D1 = CDK4/D1 (Homo sapiens, UniProt P11802); assay: Kinase selectivity assay CDK4/D1; format: biochemical; conditions: 20 μM compound, ATP Km 90 μM
Chain of CDK4/D1 (P11802 whole entry): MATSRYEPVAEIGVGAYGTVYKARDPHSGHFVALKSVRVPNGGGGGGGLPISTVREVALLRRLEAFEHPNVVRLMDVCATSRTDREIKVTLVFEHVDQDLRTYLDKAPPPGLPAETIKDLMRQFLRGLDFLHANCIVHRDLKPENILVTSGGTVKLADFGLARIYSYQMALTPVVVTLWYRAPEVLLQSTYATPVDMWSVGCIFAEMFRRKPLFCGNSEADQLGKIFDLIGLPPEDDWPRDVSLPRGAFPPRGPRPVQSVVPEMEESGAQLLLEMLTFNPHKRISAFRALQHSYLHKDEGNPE
Chain of CDK4/D1 (P24385 whole entry partner): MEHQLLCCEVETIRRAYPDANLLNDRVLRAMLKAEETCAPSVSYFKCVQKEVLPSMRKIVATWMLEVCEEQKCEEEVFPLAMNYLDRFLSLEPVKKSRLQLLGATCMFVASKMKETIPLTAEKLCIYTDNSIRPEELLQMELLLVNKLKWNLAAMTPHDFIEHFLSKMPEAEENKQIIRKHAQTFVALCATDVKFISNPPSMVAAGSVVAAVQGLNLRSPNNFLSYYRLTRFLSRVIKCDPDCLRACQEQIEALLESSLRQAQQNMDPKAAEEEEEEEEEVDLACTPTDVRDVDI

CDK2/E = CDK2/E (Homo sapiens, UniProt P24941); assay: Kinase selectivity assay CDK2/E; format: biochemical; conditions: read-out: CDK2/E % inhibition at 20 μM
PKCα = PKCα (Homo sapiens, UniProt P17252); assay: Kinase selectivity assay PKCα; format: biochemical

Chain of CDK6/D1 (Q00534 whole entry): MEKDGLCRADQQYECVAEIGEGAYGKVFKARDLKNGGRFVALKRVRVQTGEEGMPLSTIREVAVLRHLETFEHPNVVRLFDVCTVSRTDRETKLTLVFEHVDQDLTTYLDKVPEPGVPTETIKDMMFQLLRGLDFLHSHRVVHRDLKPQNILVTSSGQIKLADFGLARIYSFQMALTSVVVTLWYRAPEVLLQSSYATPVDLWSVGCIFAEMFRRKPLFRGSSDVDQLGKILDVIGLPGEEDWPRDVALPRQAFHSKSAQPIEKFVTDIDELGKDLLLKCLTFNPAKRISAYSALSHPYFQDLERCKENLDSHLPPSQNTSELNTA
Chain of CDK6/D1 (P24385 whole entry partner): as the sequence (P24385 whole entry partner) above
Chain of KDR/VEGFR2 (P35968 20-1356): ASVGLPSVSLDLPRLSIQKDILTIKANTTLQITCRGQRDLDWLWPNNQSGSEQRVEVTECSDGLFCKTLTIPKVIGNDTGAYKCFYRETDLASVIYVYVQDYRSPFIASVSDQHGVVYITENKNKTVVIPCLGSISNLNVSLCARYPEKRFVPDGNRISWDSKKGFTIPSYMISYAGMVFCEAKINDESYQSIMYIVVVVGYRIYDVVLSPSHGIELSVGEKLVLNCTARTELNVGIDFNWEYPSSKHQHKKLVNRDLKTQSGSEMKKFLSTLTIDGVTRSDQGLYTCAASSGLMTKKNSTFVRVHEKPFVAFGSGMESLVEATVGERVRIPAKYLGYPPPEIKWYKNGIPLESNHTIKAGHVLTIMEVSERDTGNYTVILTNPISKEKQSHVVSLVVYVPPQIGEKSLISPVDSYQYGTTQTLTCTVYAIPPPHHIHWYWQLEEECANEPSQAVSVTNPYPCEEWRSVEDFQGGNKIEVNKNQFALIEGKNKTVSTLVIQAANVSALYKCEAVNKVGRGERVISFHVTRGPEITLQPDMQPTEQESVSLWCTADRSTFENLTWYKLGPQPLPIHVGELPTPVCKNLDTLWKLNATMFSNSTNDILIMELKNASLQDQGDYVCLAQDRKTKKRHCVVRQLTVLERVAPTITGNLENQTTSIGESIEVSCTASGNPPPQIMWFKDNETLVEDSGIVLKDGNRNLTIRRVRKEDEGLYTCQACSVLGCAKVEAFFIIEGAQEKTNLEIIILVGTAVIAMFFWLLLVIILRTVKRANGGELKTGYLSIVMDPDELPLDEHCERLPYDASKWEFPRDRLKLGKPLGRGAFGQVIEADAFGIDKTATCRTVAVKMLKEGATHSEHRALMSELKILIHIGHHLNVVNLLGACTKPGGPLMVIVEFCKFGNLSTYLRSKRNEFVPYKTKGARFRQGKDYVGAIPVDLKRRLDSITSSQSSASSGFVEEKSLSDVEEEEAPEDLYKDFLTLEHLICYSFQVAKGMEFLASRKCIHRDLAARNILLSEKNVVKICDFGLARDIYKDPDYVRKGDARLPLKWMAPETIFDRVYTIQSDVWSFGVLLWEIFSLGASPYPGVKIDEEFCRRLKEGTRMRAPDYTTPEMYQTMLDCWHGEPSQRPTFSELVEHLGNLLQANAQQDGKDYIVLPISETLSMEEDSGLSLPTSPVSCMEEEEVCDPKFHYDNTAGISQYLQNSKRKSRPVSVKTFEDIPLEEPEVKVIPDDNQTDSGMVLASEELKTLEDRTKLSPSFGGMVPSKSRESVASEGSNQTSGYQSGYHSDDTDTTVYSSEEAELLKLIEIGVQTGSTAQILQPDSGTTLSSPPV

Compound: O=C(Nc1ccccc1C(=O)O)c1cc2c(=O)[nH]c3ccccc3c2s1 [Compound 25s, 2-(4-oxo-4,5-dihydrothieno[3,2-c]quinoline-2-carboxamido)benzoic acid]
- inhibition at 20 µM (KDR/VEGFR2): 88%
- CDK6/D1 % inhibition at 20 μM (CDK6/D1): No inhibition
- inhibition at 20 µM (PKCε): 7%
- inhibition at 20 µM (GSK3β): 81%
- inhibition at 20 µM (CDK2/A): 50%
- inhibition at 20 µM (CK1a1): 41%
- CDK1/B % inhibition at 20 μM (CDK1/B; 20 μM compound, ATP Km 5 μM): No inhibition
- WEE1 % inhibition at 20 μM (WEE1; 20 μM compound, ATP Km 50 μM): No inhibition
- mode of inhibition with respect to ATP (CDK5/p25): ATP non-competitive inhibition
- inhibition at 20 µM (DYRK1/DYRK1A): 23%
- inhibition at 20 µM (GSK3α): 79%
- IC50 (full length hCDK5/p25): 4.3 µM
- inhibition at 50 µM (full length hCDK5/p25): 70.6%
- CDK2/E inhibition @50μM (full length hCDK2/E; 50 μM compound, ATP (Km) 65 μM, Table 5): No inhibition
- inhibition at 20 µM (PKA; read-out: PKA % inhibition at 20 μM): 89%
- CDK4/D1 % inhibition at 20 μM (CDK4/D1): No inhibition
- inhibition at 20 µM (CDK2/E): 5%
- PKCα % inhibition at 20 μM (PKCα; 20 μM compound, ATP Km 10 μM): No inhibition

Compound: O=C(Nc1ccccn1)c1cc2c(Cl)nc3ccccc3c2s1 [Compound 25w, 4-chloro-N-(pyridin-2-yl)thieno[3,2-c]quinoline-2-carboxamide]
- inhibition at 20 µM (KDR/VEGFR2): 44%
- CDK6/D1 % inhibition at 20 μM (CDK6/D1): No inhibition
- inhibition at 20 µM (PKCε): 4%
- inhibition at 20 µM (GSK3β): 41%
- inhibition at 20 µM (CDK2/A): 45%
- inhibition at 20 µM (CK1a1): 19%
- inhibition at 20 µM (CDK1/B; read-out: CDK1/B % inhibition at 20 μM): 35%
- inhibition at 20 µM (WEE1; read-out: WEE1 % inhibition at 20 μM): 2%
- mode of inhibition with respect to ATP (CDK5/p25): ATP non-competitive inhibition
- inhibition at 20 µM (DYRK1/DYRK1A): 4%
- inhibition at 20 µM (GSK3α): 22%
- IC50 (full length hCDK5/p25): 3.8 µM
- inhibition at 50 µM (full length hCDK5/p25): 75.4%
- inhibition at 50 µM (full length hCDK2/E; read-out: CDK2/E inhibition @50μM, 50 μM compound, ATP (Km) 65 μM, Table 5): 21.8%
- PKA % inhibition at 20 μM (PKA; 20 μM compound, ATP Km 20 μM): No inhibition
- CDK4/D1 % inhibition at 20 μM (CDK4/D1): No inhibition
- inhibition at 20 µM (CDK2/E): 6%
- inhibition at 20 µM (PKCα; read-out: PKCα % inhibition at 20 μM): 1%
